We go through nine compounds from patent US20260092070A1, “INHIBITORS OF CANINE JANUS KINASE AND USES THEREOF” (ANIMOL DISCOVERY, INC., priority 2023, published 2026).

Structures are written as SMILES.

For one experiment, the target named is Human JAK-2 (Homo sapiens, UniProt O60674). As to the kind of experiment: JAK enzymatic assay (Eurofins KinaseProfiler/IC50Profiler, radiometric), JAK-2. The note with it: human JAK-2 enzyme, 9 concentrations; read-out: JAK2 affinity (IC50) category. Format: biochemical.
The target of another experiment is T1, Human JAK-3 (Homo sapiens, UniProt P52333).
T1 construct: purchased Eurofins Discovery (KinaseProfiler / IC50Profiler service)
T1 sequence (P52333 1-1124): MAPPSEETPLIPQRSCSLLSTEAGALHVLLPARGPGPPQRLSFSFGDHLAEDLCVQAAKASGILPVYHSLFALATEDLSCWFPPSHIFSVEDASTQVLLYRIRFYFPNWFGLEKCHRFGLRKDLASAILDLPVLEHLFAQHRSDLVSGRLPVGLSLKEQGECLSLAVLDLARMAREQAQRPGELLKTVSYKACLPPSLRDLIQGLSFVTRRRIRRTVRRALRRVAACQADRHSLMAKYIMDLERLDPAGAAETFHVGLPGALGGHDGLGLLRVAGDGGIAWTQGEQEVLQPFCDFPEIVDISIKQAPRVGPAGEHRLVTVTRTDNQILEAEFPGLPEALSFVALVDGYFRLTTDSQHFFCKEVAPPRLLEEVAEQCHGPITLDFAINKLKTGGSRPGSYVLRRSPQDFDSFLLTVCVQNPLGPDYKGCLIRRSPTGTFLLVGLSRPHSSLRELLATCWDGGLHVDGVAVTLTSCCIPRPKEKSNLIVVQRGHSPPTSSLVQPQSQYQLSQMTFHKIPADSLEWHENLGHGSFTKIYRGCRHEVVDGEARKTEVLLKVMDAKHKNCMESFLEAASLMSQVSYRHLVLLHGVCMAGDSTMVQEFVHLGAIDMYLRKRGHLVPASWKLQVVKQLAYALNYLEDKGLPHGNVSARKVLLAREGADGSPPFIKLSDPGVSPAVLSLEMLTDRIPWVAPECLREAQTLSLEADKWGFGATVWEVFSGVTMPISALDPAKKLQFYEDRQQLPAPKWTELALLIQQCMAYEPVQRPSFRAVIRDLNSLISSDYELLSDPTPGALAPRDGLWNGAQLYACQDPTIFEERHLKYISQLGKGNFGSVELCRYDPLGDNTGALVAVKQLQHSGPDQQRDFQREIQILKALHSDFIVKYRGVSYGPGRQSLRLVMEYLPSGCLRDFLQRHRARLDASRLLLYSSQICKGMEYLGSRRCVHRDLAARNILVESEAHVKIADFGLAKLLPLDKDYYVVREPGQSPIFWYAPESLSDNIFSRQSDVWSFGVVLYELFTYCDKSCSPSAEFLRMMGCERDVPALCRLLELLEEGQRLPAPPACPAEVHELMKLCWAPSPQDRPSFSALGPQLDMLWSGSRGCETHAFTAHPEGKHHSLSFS
As to the kind of experiment: JAK enzymatic assay (Eurofins KinaseProfiler/IC50Profiler, radiometric), JAK-3. Format: biochemical. The note with it: human JAK-3 enzyme, 9 concentrations; read-out: JAK3 affinity (IC50) category.

The target of another experiment is T2, Human TYK-2 (Homo sapiens, UniProt P29597).
T2 construct: purchased Eurofins Discovery (KinaseProfiler / IC50Profiler service)
As to the kind of experiment: JAK enzymatic assay (Eurofins KinaseProfiler/IC50Profiler, radiometric), TYK-2. Conditions: human TYK-2 enzyme, 9 concentrations; read-out: TYK2 affinity (IC50) category. Format: biochemical. As to the method:
Human TYK-2 (Uniprot ID: P29597) was incubated with 8 mM MOPS pH 7.0, 0.2 mM EDTA, 250 μM […]

The target of a further experiment is JAK-1 (Homo sapiens, UniProt P23458). The experiment is described as follows: JAK enzymatic assay (Eurofins KinaseProfiler/IC50Profiler, radiometric), JAK-1. Conditions: for JAK1/JAK2 selectivity: selectivity IC50 ratio for JAK1 versus JAK2, human enzymes.
Chain of JAK-1 (P23458 whole entry): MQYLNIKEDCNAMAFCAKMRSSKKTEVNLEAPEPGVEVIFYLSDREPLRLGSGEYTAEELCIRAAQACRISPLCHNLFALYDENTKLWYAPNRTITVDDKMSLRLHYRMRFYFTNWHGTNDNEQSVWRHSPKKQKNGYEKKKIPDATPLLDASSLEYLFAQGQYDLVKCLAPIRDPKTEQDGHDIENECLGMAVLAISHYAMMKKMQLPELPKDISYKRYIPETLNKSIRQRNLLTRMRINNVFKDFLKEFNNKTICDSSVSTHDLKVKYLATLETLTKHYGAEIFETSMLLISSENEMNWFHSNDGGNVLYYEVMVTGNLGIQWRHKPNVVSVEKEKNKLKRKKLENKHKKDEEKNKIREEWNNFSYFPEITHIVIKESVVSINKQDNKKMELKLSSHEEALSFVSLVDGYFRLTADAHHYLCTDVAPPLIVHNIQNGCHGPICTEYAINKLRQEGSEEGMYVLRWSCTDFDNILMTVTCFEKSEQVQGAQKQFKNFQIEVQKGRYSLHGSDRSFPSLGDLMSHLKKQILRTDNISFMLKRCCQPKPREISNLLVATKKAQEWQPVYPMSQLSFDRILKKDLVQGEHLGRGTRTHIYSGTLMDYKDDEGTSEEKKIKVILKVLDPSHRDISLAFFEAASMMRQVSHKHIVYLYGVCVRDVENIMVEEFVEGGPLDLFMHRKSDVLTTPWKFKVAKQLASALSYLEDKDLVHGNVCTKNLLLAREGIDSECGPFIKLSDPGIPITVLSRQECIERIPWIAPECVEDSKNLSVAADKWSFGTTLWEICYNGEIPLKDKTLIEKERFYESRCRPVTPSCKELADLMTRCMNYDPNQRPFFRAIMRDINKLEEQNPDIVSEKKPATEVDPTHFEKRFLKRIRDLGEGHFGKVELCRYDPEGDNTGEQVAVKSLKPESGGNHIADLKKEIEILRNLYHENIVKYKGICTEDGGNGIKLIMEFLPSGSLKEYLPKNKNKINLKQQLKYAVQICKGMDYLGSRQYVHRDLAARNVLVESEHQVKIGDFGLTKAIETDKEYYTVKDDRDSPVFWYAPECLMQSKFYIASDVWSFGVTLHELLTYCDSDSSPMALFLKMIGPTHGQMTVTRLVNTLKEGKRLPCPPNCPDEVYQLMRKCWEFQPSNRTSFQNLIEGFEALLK

T2 sequence (P29597 whole entry): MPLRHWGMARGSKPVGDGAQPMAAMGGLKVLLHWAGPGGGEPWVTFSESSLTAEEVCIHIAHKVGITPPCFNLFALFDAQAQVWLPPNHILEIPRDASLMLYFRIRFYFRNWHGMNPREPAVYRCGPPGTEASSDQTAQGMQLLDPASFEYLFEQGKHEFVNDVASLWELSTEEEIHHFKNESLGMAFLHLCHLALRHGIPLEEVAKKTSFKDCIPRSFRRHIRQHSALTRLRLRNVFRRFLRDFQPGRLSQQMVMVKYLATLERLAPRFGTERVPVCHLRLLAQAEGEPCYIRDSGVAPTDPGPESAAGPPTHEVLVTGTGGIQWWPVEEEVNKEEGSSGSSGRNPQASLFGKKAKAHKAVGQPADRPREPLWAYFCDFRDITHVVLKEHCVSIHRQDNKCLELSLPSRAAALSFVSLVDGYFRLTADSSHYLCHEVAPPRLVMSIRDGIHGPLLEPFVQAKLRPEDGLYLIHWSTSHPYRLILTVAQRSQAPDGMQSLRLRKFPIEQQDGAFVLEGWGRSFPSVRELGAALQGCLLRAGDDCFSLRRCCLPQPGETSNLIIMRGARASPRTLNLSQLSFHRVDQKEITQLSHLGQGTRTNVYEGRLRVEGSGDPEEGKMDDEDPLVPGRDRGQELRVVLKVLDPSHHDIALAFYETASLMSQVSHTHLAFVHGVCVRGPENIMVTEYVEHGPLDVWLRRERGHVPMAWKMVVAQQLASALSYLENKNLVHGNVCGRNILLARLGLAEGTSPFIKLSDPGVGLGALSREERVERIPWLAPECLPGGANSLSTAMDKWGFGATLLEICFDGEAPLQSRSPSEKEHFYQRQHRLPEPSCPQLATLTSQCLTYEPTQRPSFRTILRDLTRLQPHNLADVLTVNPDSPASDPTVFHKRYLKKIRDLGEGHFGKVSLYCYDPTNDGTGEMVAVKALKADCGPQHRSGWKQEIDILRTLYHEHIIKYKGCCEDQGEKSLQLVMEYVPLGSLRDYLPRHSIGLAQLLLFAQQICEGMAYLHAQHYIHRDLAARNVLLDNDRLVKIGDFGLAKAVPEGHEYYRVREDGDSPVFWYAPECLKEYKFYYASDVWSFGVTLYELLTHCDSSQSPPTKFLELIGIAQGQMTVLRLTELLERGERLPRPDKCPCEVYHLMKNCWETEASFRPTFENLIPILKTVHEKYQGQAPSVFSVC
Chain of Human JAK-2 (O60674 whole entry): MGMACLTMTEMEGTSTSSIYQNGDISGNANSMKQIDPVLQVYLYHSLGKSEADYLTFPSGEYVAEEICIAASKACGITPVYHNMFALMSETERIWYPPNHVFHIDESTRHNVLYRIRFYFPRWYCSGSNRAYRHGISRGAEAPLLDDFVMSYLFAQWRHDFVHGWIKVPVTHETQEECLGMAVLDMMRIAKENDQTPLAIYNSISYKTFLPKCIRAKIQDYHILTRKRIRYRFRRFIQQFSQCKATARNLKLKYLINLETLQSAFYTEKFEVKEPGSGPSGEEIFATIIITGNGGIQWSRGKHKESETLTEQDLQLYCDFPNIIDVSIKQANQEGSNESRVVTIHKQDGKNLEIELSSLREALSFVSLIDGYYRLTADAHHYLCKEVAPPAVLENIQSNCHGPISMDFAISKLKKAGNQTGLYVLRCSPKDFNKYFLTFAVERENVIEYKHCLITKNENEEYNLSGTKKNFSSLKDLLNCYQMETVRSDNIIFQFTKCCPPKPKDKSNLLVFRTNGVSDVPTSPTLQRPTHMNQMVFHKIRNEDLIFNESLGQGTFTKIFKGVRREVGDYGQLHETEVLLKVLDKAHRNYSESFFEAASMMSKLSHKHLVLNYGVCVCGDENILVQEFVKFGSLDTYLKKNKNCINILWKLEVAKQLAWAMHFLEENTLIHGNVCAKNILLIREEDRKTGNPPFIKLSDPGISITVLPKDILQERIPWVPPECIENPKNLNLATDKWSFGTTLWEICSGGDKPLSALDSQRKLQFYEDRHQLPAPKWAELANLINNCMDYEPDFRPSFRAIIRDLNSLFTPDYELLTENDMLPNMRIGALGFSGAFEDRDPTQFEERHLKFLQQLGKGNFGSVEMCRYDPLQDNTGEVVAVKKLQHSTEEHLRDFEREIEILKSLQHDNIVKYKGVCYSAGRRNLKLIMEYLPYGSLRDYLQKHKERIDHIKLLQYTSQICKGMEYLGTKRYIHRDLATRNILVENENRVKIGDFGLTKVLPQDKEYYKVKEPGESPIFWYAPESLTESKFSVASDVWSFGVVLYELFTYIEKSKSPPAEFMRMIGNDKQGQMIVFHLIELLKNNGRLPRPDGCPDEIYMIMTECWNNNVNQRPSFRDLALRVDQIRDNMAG
Description for Human JAK-2: (§1) All enzyme assays were conducted according to Eurofins Discovery's KinaseProfiler™ and IC50Profiler™ services.
(SEQ ID NO: 2) peptide substrate, 10 mM magnesium acetate and [gamma-33P]-ATP (specific activity and concentration as required). The reaction was initiated by the addition of the Mg/ATP mix. After incubation for 40 minutes at room temperature, the reaction was stopped by the addition of phosphoric acid to a concentration of 0.5%. An aliquot of the reaction was then spotted onto a filter and washed four times for 4 minutes in 0.425% phosphoric acid and once with methanol prior to drying and scintillation counting.
(§2) Data was then imported into an internal application where each data point was expressed as % inhibition based on uninhibited and no enzyme controls.
Description for Human JAK-3: as §1
(SEQ ID NO: 3) peptide substrate, 10 mM magnesium acetate and [gamma-33P]-ATP (specific activity and concentration as required). The reaction was initiated by the addition of the Mg/ATP mix. After incubation for 40 minutes at room temperature, the reaction was stopped by the addition of phosphoric acid to a concentration of 0.5%. An aliquot of the reaction was then spotted onto a filter and washed four times for 4 minutes in 0.425% phosphoric acid and once with methanol prior to drying and scintillation counting.
as §2
Description for JAK-1: as §1
(SEQ ID NO.: 1) peptide substrate, 10 mM magnesium acetate and [gamma-33P]-ATP (specific activity and concentration as required). The reaction was initiated by the addition of the Mg/ATP mix. After incubation for 40 minutes at room temperature, the reaction was stopped by the addition of phosphoric acid to a concentration of 0.5%. An aliquot of the reaction was then spotted onto a filter and washed four times for 4 minutes in 0.425% phosphoric acid and once with methanol prior to drying and scintillation counting. A known inhibitor, Staurosporine, was used as a positive control for the assay.
Data was then imported into an internal application where each data point was expressed as % inhibition based on uninhibited and no enzyme controls. […] Inhibition values for the JAK enzymes (IC50 values) for each compound were stratified into four groups.

Turning to `COc1cc(NC(=O)CN2CCN(c3ncnc4[nH]ccc34)CC2)ccc1S(=O)(=O)N(C)C` [Compound 1, 2-(4-(7H-pyrrolo[2,3-d]pyrimidin-4-yl)piperazin-1-yl)-N-(4-(N, N-dimethylsulfamoyl)-3-methoxyphenyl) acetamide], the IC50 (in general, the point on the concentration scale where inhibition reaches its midpoint) on Human JAK-2 is greater than 1 µM; at Human JAK-3, greater than 1 µM; at Human TYK-2, greater than 1 µM; against JAK-1, 0.5 to 1 µM.
Turning to `CC(C)(C)NS(=O)(=O)c1ccc(NC(=O)CN2CCN(c3ncnc4[nH]ccc34)CC2)cc1` [Compound 2, 2-(4-(7H-pyrrolo[2,3-d]pyrimidin-4-yl)piperazin-1-yl)-N-(4-(N-(tert-butyl)sulfamoyl)phenyl)acetamide], the IC50 was greater than 1 µM on Human JAK-2, greater than 1 µM on Human JAK-3, greater than 1 µM on Human TYK-2 and less than 0.25 µM against JAK-1. The JAK1/JAK2 selectivity at JAK-1 is listed as 25.
Turning to `O=C(CN1CCN(c2ncnc3[nH]ccc23)CC1)Nc1ccc(S(=O)(=O)N2CCC2)cc1` [Compound 4, 2-(4-(7H-pyrrolo[2,3-d]pyrimidin-4-yl)piperazin-1-yl)-N-(4-(azetidin-1-ylsulfonyl)phenyl) acetamide], the IC50 at Human JAK-2 is greater than 1 µM; on Human JAK-3, greater than 1 µM; at Human TYK-2, greater than 1 µM; against JAK-1, 0.25 to 0.5 µM. The JAK1/JAK2 selectivity at JAK-1 is 24.
Take `CN(C)S(=O)(=O)c1ccc(NC(=O)CN2CCN(c3ncnc4[nH]ccc34)CC2)cc1F` [Compound 5, 2-(4-(7H-pyrrolo[2,3-d]pyrimidin-4-yl)piperazin-1-yl)-N-(4-(N,N-dimethylsulfamoyl)-3-fluorophenyl)acetamide]: the half-maximal inhibitory concentration (IC50) at Human JAK-2 was greater than 1 µM; at Human JAK-3 it was greater than 1 µM; on Human TYK-2 it was greater than 1 µM; on JAK-1, 0.25 to 0.5 µM.
In the case of `CN(C)S(=O)(=O)c1ccc(NC(=O)CN2CCN(c3ncnc4[nH]ccc34)CC2)cc1Cl` [Compound 6, 2-(4-(7H-pyrrolo[2,3-d]pyrimidin-4-yl)piperazin-1-yl)-N-(3-chloro-4-(N,N-dimethylsulfamoyl)phenyl)acetamide], the IC50 at Human JAK-2, on Human JAK-3 and at Human TYK-2 was greater than 1 µM in each case.
As to `O=C(CN1CCN(c2ncnc3[nH]ccc23)CC1)Nc1ccc(S(=O)(=O)NC2CC2)cc1` [Compound 7, 2-(4-(7H-pyrrolo[2,3-d]pyrimidin-4-yl)piperazin-1-yl)-N-(4-(N-cyclopropylsulfamoyl)phenyl)acetamide], the IC50 on Human JAK-2 is 0.5 to 1 µM; on Human JAK-3 it was greater than 1 µM; on Human TYK-2, greater than 1 µM; on JAK-1, less than 0.25 µM. The JAK1/JAK2 selectivity at JAK-1 is 13.
As to `CNS(=O)(=O)c1ccc(NC(=O)CN2CCN(c3ncnc4[nH]ccc34)CC2)cc1` [Compound 8, 2-(4-(7H-pyrrolo[2,3-d]pyrimidin-4-yl)piperazin-1-yl)-N-(4-(N-methylsulfamoyl)phenyl)acetamide], the half-maximal inhibitory concentration (IC50) on Human JAK-2 was 0.5 to 1 µM; on Human JAK-3, 0.5 to 1 µM; at Human TYK-2 it was greater than 1 µM; at JAK-1, less than 0.25 µM. On JAK-1, the JAK1/JAK2 selectivity is 7.
Regarding `CNS(=O)(=O)c1ccc(NC(=O)CN2CCN(c3ncnc4[nH]ccc34)CC2)cc1F` [Compound 9, 2-(4-(7H-pyrrolo[2,3-d]pyrimidin-4-yl)piperazin-1-yl)-N-(3-fluoro-4-(N-methylsulfamoyl)phenyl)acetamide], the IC50 is 0.5 to 1 µM at Human JAK-2, 0.5 to 1 µM on Human JAK-3, 0.5 to 1 µM on Human TYK-2 and less than 0.25 µM against JAK-1. In addition, the JAK1/JAK2 selectivity on JAK-1 was determined as 12.
For `CC(C)NS(=O)(=O)c1ccc(NC(=O)[C@H](C)N2CCN(c3ncnc4[nH]ccc34)CC2)cc1` [Compound 19, (S)-2-(4-(7H-pyrrolo[2,3-d]pyrimidin-4-yl)piperazin-1-yl)-N-(4-(N-isopropylsulfamoyl)phenyl)propenamide], the values for the IC50 on Human JAK-2, on Human JAK-3 and against JAK-1 were greater than 1 µM, greater than 1 µM and less than 0.25 µM, respectively. Further, the JAK1/JAK2 selectivity at JAK-1 was 8.
